Legend:
Assay type in all cases: biochemical
[1] = molecular target: T1, recombinant alpha-glucosidase I (human full-length glucosidase I, Glu 1) (Homo sapiens, UniProt Q13724); assay: Alpha-glucosidase I assay (Amplex Red glucose detection, synthetic trisaccharide substrate); conditions: Glucosidase 1; read-out: Glu 1 IC50
T1 construct: 6-His (C); made in house; host or cells: HEK-293T cells transduced with BacMam virus (virus raised in Sf9)
T1 sequence (Q13724 1-837): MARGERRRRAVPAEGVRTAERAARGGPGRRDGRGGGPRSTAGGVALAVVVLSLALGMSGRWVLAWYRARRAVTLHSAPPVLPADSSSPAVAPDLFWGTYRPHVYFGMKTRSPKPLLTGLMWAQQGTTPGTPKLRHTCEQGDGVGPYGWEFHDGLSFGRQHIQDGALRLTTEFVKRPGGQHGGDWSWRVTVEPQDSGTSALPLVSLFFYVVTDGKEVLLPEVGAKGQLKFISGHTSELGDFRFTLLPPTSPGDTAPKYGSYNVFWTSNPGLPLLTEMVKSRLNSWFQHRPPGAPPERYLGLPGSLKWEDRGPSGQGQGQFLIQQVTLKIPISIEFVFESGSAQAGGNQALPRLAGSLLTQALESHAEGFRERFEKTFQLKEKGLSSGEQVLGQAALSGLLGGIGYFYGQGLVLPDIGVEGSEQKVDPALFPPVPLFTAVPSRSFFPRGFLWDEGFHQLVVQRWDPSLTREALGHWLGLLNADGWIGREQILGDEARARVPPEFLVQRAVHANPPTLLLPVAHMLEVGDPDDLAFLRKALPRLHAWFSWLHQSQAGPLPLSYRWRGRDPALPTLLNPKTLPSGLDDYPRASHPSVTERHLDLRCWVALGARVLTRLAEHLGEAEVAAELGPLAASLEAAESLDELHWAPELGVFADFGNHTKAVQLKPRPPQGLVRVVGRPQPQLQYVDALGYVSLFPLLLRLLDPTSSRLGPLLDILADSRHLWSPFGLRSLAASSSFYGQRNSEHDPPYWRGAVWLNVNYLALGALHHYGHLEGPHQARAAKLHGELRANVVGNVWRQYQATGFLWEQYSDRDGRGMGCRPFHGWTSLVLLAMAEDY
Procedure, shortened: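 Compound dilution series incubated 60 min at 37° C with recombinant His-tagged human glucosidase I ([…]), after which trisaccharide substrate analog was added for 90 min at 37° C. Reaction quenched with 1.5M Tris pH 8; D-glucose detected by Amplex Red fluorescence, 560/590 nm. 4-PL curve fit of percent inhibition gave IC50.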

[2] = molecular target: rat maltase (partially purified alpha-glucosidase from intestinal rat powder); assay: Intestinal alpha-glucosidase assay, maltose substrate (Glucose GO Kit)
Procedure, shortened: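 Enzyme from intestinal rat powder, partially purified, is exposed to compound for 60 min at 37 °C. Disaccharide substrate (maltose or sucrose respectively) then reacts 30 min at 37 °C. Heat-stopped samples are assayed for glucose, and percent inhibition versus concentration gives IC50 via 4-PL.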

[3] = molecular target: rat sucrase (partially purified alpha-glucosidase from intestinal rat powder) (Rattus norvegicus, UniProt P23739); assay: Intestinal alpha-glucosidase assay, sucrose substrate (Glucose GO Kit)
Procedure, shortened: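 Glucose release is the read-out: compounds at multiple dilutions are first held with partially purified rat intestinal alpha-glucosidase for 60 min at 37 °C, after which maltose or sucrose substrate reacts for 30 min at 37 °C before a 5 min 90 °C stop. IC50 comes from a four-parameter logistic fit.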

[4] = molecular target: T2, recombinant alpha-glucosidase II (murine full-length glucosidase II, alpha and beta subunits, Glu 2) (Mus musculus, UniProt Q8BHN3); assay: Alpha-glucosidase II assay (4-methylumbelliferyl-alpha-D-pyranoside substrate, fluorescence); conditions: Glucosidase 2; read-out: Glu2 IC50
T2 construct: made in house; host or cells: HEK-293T cells transduced with BacMam viruses (75% alpha, 25% beta); protein harvested from culture supernatant
T2 sequence (O08795 15-521): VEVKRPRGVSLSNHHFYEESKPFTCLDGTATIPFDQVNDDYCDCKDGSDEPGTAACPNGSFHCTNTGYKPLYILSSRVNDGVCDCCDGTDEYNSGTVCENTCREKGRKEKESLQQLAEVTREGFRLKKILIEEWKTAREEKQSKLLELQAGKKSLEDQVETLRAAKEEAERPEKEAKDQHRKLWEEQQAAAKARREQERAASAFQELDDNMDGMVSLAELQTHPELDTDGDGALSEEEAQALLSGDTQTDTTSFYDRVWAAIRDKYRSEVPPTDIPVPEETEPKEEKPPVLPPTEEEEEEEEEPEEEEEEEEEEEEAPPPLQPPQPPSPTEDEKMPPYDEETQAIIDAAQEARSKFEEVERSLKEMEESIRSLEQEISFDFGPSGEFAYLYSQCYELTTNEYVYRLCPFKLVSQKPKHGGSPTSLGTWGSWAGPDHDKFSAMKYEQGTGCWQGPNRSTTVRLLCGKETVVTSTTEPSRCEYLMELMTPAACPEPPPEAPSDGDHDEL
T2 sequence (Q8BHN3 33-944): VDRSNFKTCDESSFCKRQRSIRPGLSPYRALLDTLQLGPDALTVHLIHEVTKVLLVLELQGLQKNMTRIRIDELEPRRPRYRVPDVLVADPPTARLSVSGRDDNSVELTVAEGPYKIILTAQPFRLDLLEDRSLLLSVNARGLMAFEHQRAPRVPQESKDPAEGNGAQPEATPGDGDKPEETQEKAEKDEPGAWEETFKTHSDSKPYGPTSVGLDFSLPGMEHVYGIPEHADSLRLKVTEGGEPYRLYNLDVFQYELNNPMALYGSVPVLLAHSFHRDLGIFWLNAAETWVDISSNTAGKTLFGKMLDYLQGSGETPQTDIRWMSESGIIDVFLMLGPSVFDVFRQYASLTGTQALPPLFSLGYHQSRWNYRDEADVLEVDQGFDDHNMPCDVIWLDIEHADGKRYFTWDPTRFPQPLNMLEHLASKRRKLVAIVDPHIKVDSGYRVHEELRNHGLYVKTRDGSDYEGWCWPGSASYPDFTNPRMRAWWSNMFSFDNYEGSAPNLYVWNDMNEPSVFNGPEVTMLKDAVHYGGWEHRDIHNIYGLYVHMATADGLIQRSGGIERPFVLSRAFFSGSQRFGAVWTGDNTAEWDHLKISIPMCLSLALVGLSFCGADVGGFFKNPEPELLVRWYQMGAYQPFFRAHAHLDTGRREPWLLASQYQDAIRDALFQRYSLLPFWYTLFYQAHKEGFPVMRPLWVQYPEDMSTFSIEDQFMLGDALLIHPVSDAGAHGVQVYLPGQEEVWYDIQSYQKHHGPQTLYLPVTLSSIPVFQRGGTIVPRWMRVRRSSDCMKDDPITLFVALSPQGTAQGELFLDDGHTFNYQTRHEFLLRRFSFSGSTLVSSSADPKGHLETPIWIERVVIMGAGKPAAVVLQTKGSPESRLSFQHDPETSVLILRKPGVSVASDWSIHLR

Chain of rat sucrase (partially purified alpha-glucosidase from intestinal rat powder) (P23739 whole entry): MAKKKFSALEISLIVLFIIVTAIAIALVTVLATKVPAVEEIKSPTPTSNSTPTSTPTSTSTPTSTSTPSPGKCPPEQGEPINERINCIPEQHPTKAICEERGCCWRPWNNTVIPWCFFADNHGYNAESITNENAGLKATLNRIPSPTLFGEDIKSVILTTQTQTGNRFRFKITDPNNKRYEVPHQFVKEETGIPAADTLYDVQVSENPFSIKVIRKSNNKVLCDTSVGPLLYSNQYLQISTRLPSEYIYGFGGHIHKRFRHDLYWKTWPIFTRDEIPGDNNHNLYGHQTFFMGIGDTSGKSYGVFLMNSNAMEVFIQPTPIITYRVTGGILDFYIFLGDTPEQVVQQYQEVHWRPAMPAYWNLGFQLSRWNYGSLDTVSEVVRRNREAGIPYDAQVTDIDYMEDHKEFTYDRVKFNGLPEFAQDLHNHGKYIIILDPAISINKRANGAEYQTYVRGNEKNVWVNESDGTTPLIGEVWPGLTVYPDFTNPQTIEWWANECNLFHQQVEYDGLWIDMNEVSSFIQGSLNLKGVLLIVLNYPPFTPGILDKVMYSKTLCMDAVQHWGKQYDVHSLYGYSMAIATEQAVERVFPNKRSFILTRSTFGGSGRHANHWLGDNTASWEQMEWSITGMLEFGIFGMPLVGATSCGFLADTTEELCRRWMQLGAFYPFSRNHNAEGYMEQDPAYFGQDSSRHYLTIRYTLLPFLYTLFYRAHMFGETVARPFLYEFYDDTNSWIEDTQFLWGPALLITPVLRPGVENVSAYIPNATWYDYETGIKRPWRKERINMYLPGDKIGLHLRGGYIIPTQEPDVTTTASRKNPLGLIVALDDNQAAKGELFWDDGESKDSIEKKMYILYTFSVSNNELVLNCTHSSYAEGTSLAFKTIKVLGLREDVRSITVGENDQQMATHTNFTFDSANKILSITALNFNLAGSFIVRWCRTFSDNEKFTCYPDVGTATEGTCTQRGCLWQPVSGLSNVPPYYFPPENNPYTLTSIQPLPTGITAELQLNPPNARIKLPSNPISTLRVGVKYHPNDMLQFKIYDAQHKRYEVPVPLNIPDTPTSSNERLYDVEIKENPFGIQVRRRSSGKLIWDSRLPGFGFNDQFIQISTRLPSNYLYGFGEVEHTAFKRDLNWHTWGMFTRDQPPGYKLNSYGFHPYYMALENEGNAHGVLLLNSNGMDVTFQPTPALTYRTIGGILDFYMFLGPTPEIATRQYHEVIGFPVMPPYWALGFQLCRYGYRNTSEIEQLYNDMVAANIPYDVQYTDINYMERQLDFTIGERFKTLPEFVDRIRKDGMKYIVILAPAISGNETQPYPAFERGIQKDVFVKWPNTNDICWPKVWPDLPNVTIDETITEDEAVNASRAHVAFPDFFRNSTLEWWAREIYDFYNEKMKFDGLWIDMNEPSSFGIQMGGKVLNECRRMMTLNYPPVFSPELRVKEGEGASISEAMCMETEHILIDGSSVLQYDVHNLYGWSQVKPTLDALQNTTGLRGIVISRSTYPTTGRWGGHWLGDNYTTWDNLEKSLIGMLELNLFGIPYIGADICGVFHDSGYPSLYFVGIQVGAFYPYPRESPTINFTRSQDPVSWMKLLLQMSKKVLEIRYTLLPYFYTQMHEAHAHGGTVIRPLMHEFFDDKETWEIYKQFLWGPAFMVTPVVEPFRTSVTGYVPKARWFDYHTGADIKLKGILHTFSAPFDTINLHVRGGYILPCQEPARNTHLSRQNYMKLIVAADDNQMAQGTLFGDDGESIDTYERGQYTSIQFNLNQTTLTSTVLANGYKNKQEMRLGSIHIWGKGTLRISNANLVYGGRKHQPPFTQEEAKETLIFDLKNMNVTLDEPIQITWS

## O=[N+]([O-])c1cc(-c2ncccn2)ccc1NCc1cccc(CN2C[C@H](O)[C@@H](O)[C@H](O)[C@H]2CO)c1 [Compound 1090, (2R,3R,4R,5S)-2-(hydroxymethyl)-1-{[3-({[2-nitro-4-(pyrimidin-2-yl)phenyl]amino}methyl)phenyl]methyl}piperidine-3,4,5-triol]
[1]
  IC50: 7 nM
[2]
  IC50: 34 nM
[3]
  IC50: 2 nM
[4]
  IC50: 13800 nM

## N#Cc1cc(NCc2cccc(CN3C[C@H](O)[C@@H](O)[C@H](O)[C@H]3CO)c2)cc(-c2cccnn2)c1 [Compound 1046, 3-(pyridazin-3-yl)-5-{[(3-{[(2R,3R,4R,5S)-3,4,5-trihydroxy-2-(hydroxymethyl)piperidin-1-yl]methyl}phenyl)methyl]amino}benzonitrile]
[1]
  IC50: 17 nM
[2]
  IC50: 6 nM
[3]
  IC50: 52 nM
[4]
  IC50: 18000 nM

## OC[C@@H]1[C@@H](O)[C@H](O)[C@@H](O)CN1Cc1ccc(CNc2ccc(-c3ncccn3)cc2)cc1 [Compound 1096, (2R,3R,4R,5S)-2-(hydroxymethyl)-1-{[4-({[4-(pyrimidin-2-yl)phenyl]amino}methyl)phenyl]methyl}piperidine-3,4,5-triol]
[1]
  IC50: 15 nM
[2]
  IC50: 11 nM
[3]
  IC50: 23 nM
[4]
  IC50: 1430 nM

## O=[N+]([O-])c1cc(CN2CCCO2)ccc1NCCc1ccc(CCN2C[C@H](O)[C@@H](O)[C@H](O)[C@H]2CO)cc1 [Compound 1108, (2R,3R,4R,5S)-2-(hydroxymethyl)-1-(2-{4-[2-({2-nitro-4-[(1,2-oxazolidin-2-yl)methyl]phenyl}amino)ethyl]phenyl}ethyl)piperidine-3,4,5-triol]
[1]
  IC50: 247 nM
[2]
  IC50: 98 nM
[3]
  IC50: 908 nM
[4]
  IC50: 7 nM

## O=[N+]([O-])c1cc(-c2ccc[nH]2)ccc1NCc1ccc(CN2C[C@H](O)[C@@H](O)[C@H](O)[C@H]2CO)cc1 [Compound 1100, (2R,3R,4R,5S)-2-(hydroxymethyl)-1-{[4-({[2-nitro-4-(1H-pyrrol-2-yl)phenyl]amino}methyl)phenyl]methyl}piperidine-3,4,5-triol]
[1]
  IC50: < 1 nM
[2]
  IC50: < 1 nM
[3]
  IC50: 2 nM
[4]
  IC50: < 1 nM

## CS(=O)(=O)c1cc(NCc2ccc(CN3C[C@H](O)[C@@H](O)[C@H](O)[C@H]3CO)cc2)cc(N2CCOCC2)c1 [Compound 1054, (2R,3R,4R,5S)-2-(hydroxymethyl)-1-{[4-({[3-methanesulfonyl-5-(morpholin-4-yl)phenyl]amino}methyl)phenyl]methyl}piperidine-3,4,5-triol]
[1]
  IC50: 102 nM
[2]
  IC50: 57 nM
[3]
  IC50: 160 nM
[4]
  IC50: 2200 nM

## CN(Cc1ccc(CN2C[C@H](O)[C@@H](O)[C@H](O)[C@H]2CO)cc1)c1cc(-c2cccnn2)cc(C2CC2)c1 [Compound 1001, (2R,3R,4R,5S)-1-{[4-({[3-cyclopropyl-5-(pyridazin-3-yl)phenyl](methyl)amino}methyl)phenyl]methyl}-2-(hydroxymethyl)piperidine-3,4,5-triol]
[1]
  IC50: 13 nM
[2]
  IC50: < 1 nM
[3]
  IC50: 15 nM
[4]
  IC50: 437 nM

## O=[N+]([O-])c1cc(-c2cccnn2)ccc1NCc1cccc(CN2C[C@H](O)[C@@H](O)[C@H](O)[C@H]2CO)c1 [Compound 1089, (2R,3R,4R,5S)-2-(hydroxymethyl)-1-{[3-({[2-nitro-4-(pyridazin-3-yl)phenyl]amino}methyl)phenyl]methyl}piperidine-3,4,5-triol]
[1]
  IC50: 26 nM
[2]
  IC50: 36 nM
[3]
  IC50: 23 nM
[4]
  IC50: 20700 nM

## COc1cc(NCCc2ccc(CCN3C[C@H](O)[C@@H](O)[C@H](O)[C@H]3CO)cc2)cc(-c2noc(C3CCC3)n2)c1 [Compound 1120, (2R,3R,4R,5S)-1-{2-[4-(2-{[3-(5-cyclobutyl-1,2,4-oxadiazol-3-yl)-5-methoxyphenyl]amino}ethyl)phenyl]ethyl}-2-(hydroxymethyl)piperidine-3,4,5-triol]
[1]
  IC50: 1130 nM
[2]
  IC50: 186 nM
[3]
  IC50: 506 nM
[4]
  IC50: 1 nM

## COc1cc(Br)cc(NCCn2cc(CCN3C[C@H](O)[C@@H](O)[C@H](O)[C@H]3CO)c3ccccc32)c1 [Compound 1075, (2R,3R,4R,5S)-1-[2-(1-{2-[(3-bromo-5-methoxyphenyl)amino]ethyl}-1H-indol-3-yl)ethyl]-2-(hydroxymethyl)piperidine-3,4,5-triol]
[1]
  IC50: 1920 nM
[2]
  IC50: 238 nM
[3]
  IC50: 722 nM
[4]
  IC50: 150 nM

## OC[C@@H]1[C@@H](O)[C@H](O)[C@@H](O)CN1Cc1ccc(CNc2ccc(-c3ccc[nH]3)cc2)cc1 [Compound 1094, (2R,3R,4R,5S)-2-(hydroxymethyl)-1-{[4-({[4-(1H-pyrrol-2-yl)phenyl]amino}methyl)phenyl]methyl}piperidine-3,4,5-triol]
[1]
  IC50: 28 nM
[2]
  IC50: 19 nM
[3]
  IC50: 57 nM
[4]
  IC50: 177 nM

## O=S(=O)(Nc1cc(NCCCCCCN2C[C@H](O)[C@@H](O)[C@H](O)[C@H]2CO)cc(-c2ncccn2)c1)C1CC1 [Compound 1114, N-[3-(pyrimidin-2-yl)-5-({6-[(2R,3R,4R,5S)-3,4,5-trihydroxy-2-(hydroxymethyl)piperidin-1-yl]hexyl}amino)phenyl]cyclopropanesulfonamide]
[1]
  IC50: 108 nM
[2]
  IC50: 5 nM
[3]
  IC50: 52 nM
[4]
  IC50: 3 nM

## OC[C@@H]1[C@@H](O)[C@H](O)[C@@H](O)CN1CCCCCCNc1cc(C2CC2)cc(N2CCOCC2)c1 [Compound 1006, (2R,3R,4R,5S)-1-(6-{[3-cyclopropyl-5-(morpholin-4-yl)phenyl]amino}hexyl)-2-(hydroxymethyl)piperidine-3,4,5-triol]
[1]
  IC50: 220 nM
[2]
  IC50: 10 nM
[3]
  IC50: 116 nM
[4]
  IC50: 1 nM

## OC[C@@H]1[C@@H](O)[C@H](O)[C@@H](O)CN1Cc1cccc(CNc2ccc(C3=COCCO3)cc2)c1 [Compound 1066, (2R,3R,4R,5S)-1-{[3-({[4-(5,6-dihydro-1,4-dioxin-2-yl)phenyl]amino}methyl)phenyl]methyl}-2-(hydroxymethyl)piperidine-3,4,5-triol]
[1]
  IC50: 69 nM
[2]
  IC50: 41 nM
[3]
  IC50: 26 nM
[4]
  IC50: 3360 nM

## [N-]=[N+]=Nc1ccc(NCCc2cc(CCN3C[C@H](O)[C@@H](O)[C@H](O)[C@H]3CO)cc(C3CCCCC3)c2)c([N+](=O)[O-])c1 [Compound 1115, (2R,3R,4R,5S)-1-[2-(3-{2-[(4-azido-2-nitrophenyl)amino]ethyl}-5-cyclohexylphenyl)ethyl]-2-(hydroxymethyl)piperidine-3,4,5-triol]
[1]
  IC50: 100 nM
[2]
  IC50: 6740 nM
[3]
  IC50: 10500 nM
[4]
  IC50: 1080 nM

## OC[C@@H]1[C@@H](O)[C@H](O)[C@@H](O)CN1Cc1cccc(CNc2ccc(-c3cccnn3)cc2)c1 [Compound 1083, (2R,3R,4R,5S)-2-(hydroxymethyl)-1-{[3-({[4-(pyridazin-3-yl)phenyl]amino}methyl)phenyl]methyl}piperidine-3,4,5-triol]
[1]
  IC50: 72 nM
[2]
  IC50: 54 nM
[3]
  IC50: 28 nM
[4]
  IC50: 9990 nM

## OC[C@@H]1[C@@H](O)[C@H](O)[C@@H](O)CN1Cc1cccc(CNc2ccc(-c3ccc[nH]3)cc2)c1 [Compound 1082, (2R,3R,4R,5S)-2-(hydroxymethyl)-1-{[3-({[4-(1H-pyrrol-2-yl)phenyl]amino}methyl)phenyl]methyl}piperidine-3,4,5-triol]
[1]
  IC50: 69 nM
[2]
  IC50: 14 nM
[3]
  IC50: 25 nM
[4]
  IC50: 5630 nM

## O=[N+]([O-])c1cc(-c2cccnn2)ccc1NCCc1ccc(CCN2C[C@H](O)[C@@H](O)[C@H](O)[C@H]2CO)cc1 [Compound 1109, (2R,3R,4R,5S)-2-(hydroxymethyl)-1-{2-[4-(2-{[2-nitro-4-(pyridazin-3-yl)phenyl]amino}ethyl)phenyl]ethyl}piperidine-3,4,5-triol]
[1]
  IC50: 6 nM
[2]
  IC50: 1 nM
[3]
  IC50: 446 nM
[4]
  IC50: < 1 nM

— patent publication US20250197372A1 (priority 2020, published 2025)
